Data as given in PMC12434521, “Characterization of Next-Generation Inhibitors for the Inward-Rectifier Potassium Channel Kir2.1: Discovery of VU6080824” (ACS Medicinal Chemistry Letters, 2025).
Values joined by “and” are separate entries in the source; they are usually repeats but may differ in a detail not shown here. Identical values can stand only once. Like-named read-outs stand apart in the source and are kept apart here.

What was measured:
human Kir2.1 [1] = target: T1, human Kir2.1 (Homo sapiens, UniProt P63252); assay: Kir2.1 manual patch clamp (MPC) assay; type: cell-based; conditions: for Emax / Manual patch clamp Emax: % inhibition of Ba2+-sensitive current at highest tested concentration (3–30 μM); for IC50: pH 7.4, -120 mV, normalized to 2 mM Ba2+ block, top concentration 10 μM (ML133 30 μM, 5t 3 μM)
T1 construct: expressed in transfected cells
T1 sequence (P63252 1-427): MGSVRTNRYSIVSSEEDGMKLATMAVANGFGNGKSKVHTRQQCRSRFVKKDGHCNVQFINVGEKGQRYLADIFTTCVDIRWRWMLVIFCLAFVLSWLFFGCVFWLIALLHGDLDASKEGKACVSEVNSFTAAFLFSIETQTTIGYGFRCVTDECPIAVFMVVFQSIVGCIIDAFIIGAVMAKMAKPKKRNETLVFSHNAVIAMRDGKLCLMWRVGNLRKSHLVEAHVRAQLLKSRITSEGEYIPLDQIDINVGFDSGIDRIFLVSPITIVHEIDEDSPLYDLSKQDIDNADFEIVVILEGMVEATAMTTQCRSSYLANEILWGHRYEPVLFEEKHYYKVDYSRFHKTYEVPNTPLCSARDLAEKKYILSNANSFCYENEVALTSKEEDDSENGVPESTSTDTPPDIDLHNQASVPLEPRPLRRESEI
Procedure: (§1) Manual Patch Claim Assay Experimental Conditions
(§2) Whole-cell patch-clamp electrophysiology was used to record K ir2.1 currents from a stably transfected monoclonal T-Rex-HEK-293 cell line with a tetracycline-inducible promoter expressing human Kir2.1, as described previously1 cultured in a 5% CO2 incubator at 37°C. Kir2.1 expression was induced by overnight treatment with 1 µg/mL tetracycline. Cells were dissociated using 0.25% Trypsin-EDTA and seeded onto 12 mm circular coverslips (Electron Microscopy Sciences, PA, USA) for same-day whole-cell patch-clamp recordings. Kir2.1 currents were recorded at room temperature using an AxoPatch 200B amplifier with Clampex 10.7 software (Molecular Devices, USA). The voltage-clamp protocol consisted of a 1-s step to -120 mV from a -80 mV holding potential, followed by a 2-s ramp to +40 mV, repeated every 10 s. Data were sampled at 5 kHz and filtered at 1 kHz. Patch pipettes, pulled from 1.5 mm OD thin-walled capillaries (Warner Instruments, MA, USA) using a Sutter P-1000 puller (Sutter Instrument, CA, USA), had resistances of 2–3 MΩ when filled with intracellular solution containing (mM): 135 KCl, 10 HEPES, 1 EGTA, 2 MgCl2, 2 Na2ATP (pH 7.35, adjusted with KOH). The extracellular solution contained (mM): 135 NaCl, 5 KCl, 2 CaCl2, 1 MgCl2, 5 Glucose, 10 HEPES, 10 Sucrose (pH 7.35, adjusted with NaOH). After establishing stable baseline Kir2.1 currents, cells were perfused with compounds at concentrations of 0.03–30 µM until response saturation (within minutes).
(§3) Recordings concluded with a 2 mM Ba2+ solution to isolate Ba2+-sensitive currents, with compound responses expressed as fractions of this current. Current amplitudes at the -120 mV step were analyzed using Clampfit 11.2 (Molecular Devices). IC50 values were calculated by fitting the Hill equation to concentration-response curves (CRCs) using variable -slope nonlinear regression in GraphPad Prism 10.4 (GraphPad Software).
(§4) MPC experiments for Kir2.2 and Kir2.3 were conducted in an analogous fashion.1

Kir4.1 [2] = target: T2, Kir4.1 (Homo sapiens, UniProt P78508); assay: Kir4.1 thallium flux assay; type: cell-based; conditions: selective up to 10 μM
T2 sequence (P78508 1-379): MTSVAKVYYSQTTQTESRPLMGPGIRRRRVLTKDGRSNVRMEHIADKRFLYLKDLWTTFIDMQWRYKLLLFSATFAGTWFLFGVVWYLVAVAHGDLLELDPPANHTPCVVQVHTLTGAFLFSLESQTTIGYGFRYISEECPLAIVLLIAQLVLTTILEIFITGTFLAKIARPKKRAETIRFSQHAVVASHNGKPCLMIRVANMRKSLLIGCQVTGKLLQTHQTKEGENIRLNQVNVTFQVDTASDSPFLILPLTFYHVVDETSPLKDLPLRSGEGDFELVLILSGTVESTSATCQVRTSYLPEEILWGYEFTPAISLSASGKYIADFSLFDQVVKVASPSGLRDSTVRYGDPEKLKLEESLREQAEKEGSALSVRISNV

Kir2.3 = target: T3, Kir2.3 (Homo sapiens, UniProt P48050); assay: Kir2.3 manual patch clamp (MPC); type: cell-based
T3 construct: expressed in transfected cells
T3 sequence (P48050 1-445): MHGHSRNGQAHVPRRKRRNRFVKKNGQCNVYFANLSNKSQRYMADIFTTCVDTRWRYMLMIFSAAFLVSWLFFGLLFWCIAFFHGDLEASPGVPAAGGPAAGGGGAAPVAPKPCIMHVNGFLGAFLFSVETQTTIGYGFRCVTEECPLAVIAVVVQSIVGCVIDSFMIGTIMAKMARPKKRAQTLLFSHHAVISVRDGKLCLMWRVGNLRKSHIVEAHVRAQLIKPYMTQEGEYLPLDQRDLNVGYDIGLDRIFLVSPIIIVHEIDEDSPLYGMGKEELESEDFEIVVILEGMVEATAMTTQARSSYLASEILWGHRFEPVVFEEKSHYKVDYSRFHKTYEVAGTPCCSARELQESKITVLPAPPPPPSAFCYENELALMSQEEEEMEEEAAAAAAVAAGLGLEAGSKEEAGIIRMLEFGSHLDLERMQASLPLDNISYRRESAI
Procedure: as §1, §2, §3, §4

Kir2.2 = target: T4, Kir2.2 (Homo sapiens, UniProt Q14500); assay: Kir2.2 manual patch clamp (MPC); type: cell-based
T4 construct: expressed in transfected cells
T4 sequence (Q14500 1-433): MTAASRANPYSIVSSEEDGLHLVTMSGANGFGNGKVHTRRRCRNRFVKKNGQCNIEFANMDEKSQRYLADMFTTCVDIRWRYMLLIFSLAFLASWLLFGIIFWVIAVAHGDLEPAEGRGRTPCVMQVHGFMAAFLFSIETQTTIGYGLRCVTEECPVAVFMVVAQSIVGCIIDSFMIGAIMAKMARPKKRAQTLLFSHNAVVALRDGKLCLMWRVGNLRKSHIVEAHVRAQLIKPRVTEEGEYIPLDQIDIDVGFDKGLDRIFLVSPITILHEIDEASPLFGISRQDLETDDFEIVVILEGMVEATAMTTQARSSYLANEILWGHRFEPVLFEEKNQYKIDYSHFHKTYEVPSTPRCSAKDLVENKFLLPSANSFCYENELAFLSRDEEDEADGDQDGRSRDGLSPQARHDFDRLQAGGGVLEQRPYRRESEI
Procedure: as §1, §2, §3, §4

human Kir2.1 [3] = target: T1, human Kir2.1; set-up: method as in PMID 21615117; conditions: pH 7.4; read-out: Kir2.1 manual patch clamp IC50 (original report); cited from earlier work
Kir7.1 = tested on: Kir7.1; set-up: method as in PMID 21615117; conditions: cited from earlier work
Kir4.1 [4] = target: T2, Kir4.1; set-up: method as in PMID 21615117; conditions: cited from earlier work

| SMILES | Emax (human Kir2.1 [1]; pH 7.4) [%] | IC50 (human Kir2.1 [1]) | Fold more potent than ML133 in MPC (human Kir2.1 [1]; pH 7.4) | Kir2.1/Kir2.3 Selectivity (MPC) (Kir2.3) [fold] | Kir2.1/Kir2.2 Selectivity (MPC) (Kir2.2) [fold] | other results |
| --- | --- | --- | --- | --- | --- | --- |
| [2H]C([2H])([2H])Oc1ccc(CNCc2cccc3ccccc23)cc1 [Compound 7] | 82 | 3940 nM |  |  |  |  |
| [2H]C([2H])([2H])Oc1ccc(CNCc2ccc(-c3cccc(OC)c3)cc2)cc1 [Compound 9] |  |  |  | 1.8 | 1.4 | Manual patch clamp Emax (human Kir2.1 [1]; pH 7.4): 99% |
| [2H]C([2H])([2H])Oc1cccc(-c2ccc(CNCc3ccc(OC)cc3)cc2)c1 [Compound 11] |  |  |  | 1.3 | 0.73 | Manual patch clamp Emax (human Kir2.1 [1]; pH 7.4): 99% |
| [2H]C([2H])([2H])Oc1ccc(CNCc2ccc(-c3cccc(OC([2H])([2H])[2H])c3)cc2)cc1 [Compound 13] |  |  |  | 2.4 | 3.2 | Manual patch clamp Emax (human Kir2.1 [1]; pH 7.4): 99% |

Now from value to compound, other results behind:

| Emax (human Kir2.1 [1]; pH 7.4) [%] | IC50 (human Kir2.1 [1]) | Fold more potent than ML133 in MPC (human Kir2.1 [1]; pH 7.4) | Kir2.1/Kir2.3 Selectivity (MPC) (Kir2.3) [fold] | Kir2.1/Kir2.2 Selectivity (MPC) (Kir2.2) [fold] | SMILES | other results |
| --- | --- | --- | --- | --- | --- | --- |
| 92 | 3030 nM |  |  |  | COc1ccc(CNCc2ccc3c(c2)OC(F)(F)O3)cc1 [Compound 5h] |  |
| 100 | 390 nM | 3–5 fold |  |  | COc1ccc(CNCc2cccc(-c3ccccc3)c2)cc1 [Compound 5j] |  |
| 99 | 1390 nM |  |  |  | COc1ccc(CNCc2ccc(-c3ccccc3)cc2)cc1 [Compound 5k] | MPC potency relative to ML133 (human Kir2.1 [1]; pH 7.4): equipotent |
| 98 | 300 nM | 3–5 fold |  |  | COc1ccc(CNCc2ccc(-c3cccc(F)c3)cc2)cc1 [Compound 5p] |  |
| 100 | 350 nM | 3–5 fold | 2.5 | 2.1 | COc1ccc(CNCc2ccc(-c3cccc(OC)c3)cc2)cc1 [Compound 5s, 1-(3′-Methoxy-[1,1’-biphenyl]-4-yl)-N-(4-methoxybenzyl)methanamine] | IC50 (Kir4.1 [2]): > 10000 nM; IC50 (Kir2.3): 860 nM; Kir2.1/Kir2.3 Selectivity (MPC) (Kir2.3; listed as VU6080824): approximately 2 fold; IC50 (Kir2.2): 750 nM; Kir2.1/Kir2.2 Selectivity (MPC) (Kir2.2; listed as VU6080824): approximately 2 fold |
| 98 | 480 nM | 3–5 fold |  |  | COc1ccc(CNCc2ccc(-c3cccc(C#N)c3)cc2)cc1 [Compound 5t] |  |
| 99 | 1500 nM and 1510 nM |  |  |  | COc1ccc(CNCc2cccc3ccccc23)cc1 [ML133, N-(4-methoxybenzyl)-1-(naphthalen-1-yl)methanamine, reference compound] | IC50 (human Kir2.1 [3]): 1800 nM; IC50 (Kir7.1): > 30000 nM; IC50 (Kir4.1 [4]): > 30000 nM |
